Measured values as given in ChEMBL document CHEMBL2074159, “Role of organic cation transporters in the renal secretion of nucleosides” (Biochem Pharmacol, 2000).

T1: Solute carrier family 22 member 1 (Rattus norvegicus, UniProt Q63089)
T1 sequence (Q63089 whole entry): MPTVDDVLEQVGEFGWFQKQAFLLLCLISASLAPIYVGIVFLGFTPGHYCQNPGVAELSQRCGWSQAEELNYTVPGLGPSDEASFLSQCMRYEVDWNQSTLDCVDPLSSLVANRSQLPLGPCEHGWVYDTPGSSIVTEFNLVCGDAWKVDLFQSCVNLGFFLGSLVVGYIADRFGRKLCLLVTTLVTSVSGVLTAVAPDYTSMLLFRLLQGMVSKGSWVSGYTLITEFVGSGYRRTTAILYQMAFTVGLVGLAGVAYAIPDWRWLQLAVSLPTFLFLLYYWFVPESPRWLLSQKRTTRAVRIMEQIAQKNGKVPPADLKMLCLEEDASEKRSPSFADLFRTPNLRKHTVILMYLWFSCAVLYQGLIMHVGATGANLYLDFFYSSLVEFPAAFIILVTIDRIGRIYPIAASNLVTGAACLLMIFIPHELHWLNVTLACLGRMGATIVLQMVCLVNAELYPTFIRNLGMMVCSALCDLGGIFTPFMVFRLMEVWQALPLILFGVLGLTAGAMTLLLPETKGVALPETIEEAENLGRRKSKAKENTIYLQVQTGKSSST

T2: Solute carrier family 22 member 2 (Rattus norvegicus, UniProt Q9R0W2)
T2 sequence (Q9R0W2 whole entry): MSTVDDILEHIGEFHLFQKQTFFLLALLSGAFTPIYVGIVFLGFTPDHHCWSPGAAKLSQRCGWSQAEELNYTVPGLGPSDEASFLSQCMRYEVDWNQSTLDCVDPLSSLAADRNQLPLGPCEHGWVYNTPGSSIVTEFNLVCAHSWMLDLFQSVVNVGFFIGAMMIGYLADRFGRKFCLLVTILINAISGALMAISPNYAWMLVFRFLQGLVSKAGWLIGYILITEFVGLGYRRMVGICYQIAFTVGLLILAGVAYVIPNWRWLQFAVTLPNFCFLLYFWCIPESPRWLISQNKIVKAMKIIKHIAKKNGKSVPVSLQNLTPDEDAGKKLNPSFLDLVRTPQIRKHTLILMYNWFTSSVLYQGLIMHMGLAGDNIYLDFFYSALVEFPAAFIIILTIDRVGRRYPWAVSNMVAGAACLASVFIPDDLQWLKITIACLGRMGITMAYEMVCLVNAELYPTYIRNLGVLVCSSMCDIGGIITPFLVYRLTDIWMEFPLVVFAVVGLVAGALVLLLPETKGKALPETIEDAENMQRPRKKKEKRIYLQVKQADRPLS


Key:
[1] = target: T1, Solute carrier family 22 member 1; assay: TP_TRANSPORTER: inhibition of TEA uptake in Xenopus laevis oocytes; format: functional, cell-based, Oocyte
[2] = target: T1, Solute carrier family 22 member 1; assay: (§1) TP_TRANSPORTER: uptake in Xenopus laevis oocytes; format: functional, cell-based; conditions: oocyte
[3] = target: T2, Solute carrier family 22 member 2; assay: as §1; format: functional, cell-based; conditions: oocyte
[4] = target: T1, Solute carrier family 22 member 1; assay: TP_TRANSPORTER: inhibition of dTub uptake in Xenopus laevis oocytes
[5] = substrate: CC[N+](CC)(CC)CC; assay: cells, lysate or membranes named

Molecule | Activity [2] | Activity [3] | other results
Nc1ncnc2c1ccn2[C@H]1C[C@H](O)[C@@H](CO)O1 [2'-Deoxytubercidin] | – | – | Ki [1]: 19 µM
Nc1nc(Cl)nc2c1ncn2[C@H]1C[C@H](O)[C@@H](CO)O1 [CLADRIBINE] | substrate [+] | is not a substrate [-] | –
Nc1ccn([C@@H]2O[C@H](CO)[C@@H](O)[C@@H]2O)c(=O)n1 [CYTARABINE] | substrate [+] | is not a substrate [-] | –
CC[N+](CC)(CC)CC [TETRYLAMMONIUM] | – | – | Ki [4]: 286 µM
Cc1cn([C@H]2C[C@H](N=[N+]=[N-])[C@@H](CO)O2)c(=O)[nH]c1=O [ZIDOVUDINE] | substrate [+] | is not a substrate [-] | –
Solute carrier family 22 member 1 (Rattus norvegicus) (protein) MPTVDDVLEQVGEFGWFQKQAFLLLCLISASLAPIYVGIVFLGFTPGHYCQNPGVAELSQRCGWSQAEELNYTVPGLGPSDEASFLSQCMRYEVDWNQSTLDCVDPLSSLVANRSQLPLGPCEHGWVYDTPGSSIVTEFNLVCGDAWKVDLFQSCVNLGFFLGSLVVGYIADRFGRKLCLLVTTLVTSVSGVLTAVAPDYTSMLLFRLLQGMVSKGSWVSGYTLITEFVGSGYRRTTAILYQMAFTVGLVGLAGVAYAIPDWRWLQLAVSLPTFLFLLYYWFVPESPRWLLSQKRTTRAVRIMEQIAQKNGKVPPADLKMLCLEEDASEKRSPSFADLFRTPNLRKHTVILMYLWFSCAVLYQGLIMHVGATGANLYLDFFYSSLVEFPAAFIILVTIDRIGRIYPIAASNLVTGAACLLMIFIPHELHWLNVTLACLGRMGATIVLQMVCLVNAELYPTFIRNLGMMVCSALCDLGGIFTPFMVFRLMEVWQALPLILFGVLGLTAGAMTLLLPETKGVALPETIEEAENLGRRKSKAKENTIYLQVQTGKSSST | – | – | Km [5]: 251 µM
